Here are results for one compound from patent US7691857B2, “Muscarinic agents as therapeutic compounds” (Muscagen Limited, priority 2003, dated 2010).

The target in this test is M1 receptor (Oryctolagus cuniculus, UniProt G1SR55). Nature of the test: Functional assay of M1 receptor activity, electrically stimulated rabbit vas deferens preparation. The source says:
M1 receptor activity of a compound of the invention may be examined with the rabbit vas deferens using a method developed from that described previously (Dorje F, Rettenmayr N, Mutschler E and Lambrecht G, Eur J Pharmacol 1991, 203, 417-420). The tissue is stimulated electrically to contract and the conditions are optimized so that M1 receptor agonists produce a concentration-related inhibition of contraction height. Any activity at M2 receptors is indicated by an increase in the contraction height. M2 receptor activity may also be recorded from increases in contraction of the guinea-pig paced left atria. M3 receptor activity is measured from the contraction of the guinea-pig ileum. […]
Initial evaluation of the test compound is by assay of functional tissue responses. This has the advantage that it readily discriminates between agonist, partial agonist and antagonist activity. […]
Male New Zealand white rabbits (1.47-3.4 Kg) are killed by a blow to the back of the head and vasa deferentia removed, dissected free of connective tissue and divided into prostatic and epididmyal portions. […] Isometric tension is recorded by computer at a sampling rate of 100 Hz, using Powerlab/200 (ADInstruments) software and MacLab bridge amplifiers. […]

M1 receptor, sequence (G1SR55 1-460): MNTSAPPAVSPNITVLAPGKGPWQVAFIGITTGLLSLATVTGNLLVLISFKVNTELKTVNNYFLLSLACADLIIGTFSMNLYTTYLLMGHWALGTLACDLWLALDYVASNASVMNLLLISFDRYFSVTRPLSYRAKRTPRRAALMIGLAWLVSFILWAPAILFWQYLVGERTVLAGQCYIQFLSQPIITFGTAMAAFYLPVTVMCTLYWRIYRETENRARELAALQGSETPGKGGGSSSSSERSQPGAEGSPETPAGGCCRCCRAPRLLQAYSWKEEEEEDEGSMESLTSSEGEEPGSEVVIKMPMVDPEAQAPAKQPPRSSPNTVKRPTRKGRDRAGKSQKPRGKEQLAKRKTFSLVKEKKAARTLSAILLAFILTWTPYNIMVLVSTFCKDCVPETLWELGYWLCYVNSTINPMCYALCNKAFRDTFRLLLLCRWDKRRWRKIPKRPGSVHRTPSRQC

As for `COCC1CNCC2(C3CCC3)C1OC(=O)N2Cc1ccccc1` (centres unmarked) [Example 1, 3-Benzyl-3a-cyclobutyl-7-methoxymethyl-2-oxo-octahydro-oxazolo[4,5-c]pyridin-5-ium], the EC50 (M1 agonism, inhibition of twitch height in field-stimulated rabbit vas deferens, read-out: potency (EC50 value)) is 0.1 µM. In addition, the “partial M1 agonist (extent of agonism)” value (rabbit vas deferens functional tissue response) was 50%.
